Data reported in PMC4279401 (Oncotarget, 2014).
Values joined by “and” are separate entries in the source; they are usually repeats but may differ in a detail not shown here. Equal values may be shown once. “Also recorded” adds a separate entry of the source. Read-outs that look alike come from different tables or passages of the source.

Experiments:
MDA-MB231 [1] = assay: Cell proliferation after DOT1L siRNA; format: cell-based, Human; settings: MDA-MB231, siRNA treatment, in words
Description: Human cell lines BT549, MDA-MB231, MCF-7, MDA-MB157, HCC70, A549 and NB4 were obtained from the American Type Culture Collection (ATCC) and cultured using ATCC recommended conditions. Primary antibodies against H3K79me2, H3K27me3, H3K4me3, H3K36me2, H4K20me3, H3K9me-pan were purchased from Cell Signaling (Danvers, MA). siRNA experiments were performed by transfecting MDA-MB-231 cells with X-tremeGENE Transfection Reagent (Roche) and 10 nM siRNA (Invitrogen), according to the manufacturer's protocol. The sequences for DOT1L siRNA (Invitrogen) were: • siRNA-1: 634-[…]; • siRNA-2: 117-[…]; • siRNA-3: 104-[…]; • siRNA-4: 470-[…]; • siRNA-5: 120-[…]. • siRNA-`mock represents an siRNA that has no homology to any vertebrate transcriptome.

H3K79 methylation = assay: Western blot of histone methylation in MDA-MB231; format: cell-based, Human; settings: for effect on H3K79 methylation: in words
Description: Human cell lines BT549, MDA-MB231, MCF-7, MDA-MB157, HCC70, A549 and NB4 were obtained from the American Type Culture Collection (ATCC) and cultured using ATCC recommended conditions. Primary antibodies against H3K79me2, H3K27me3, H3K4me3, H3K36me2, H4K20me3, H3K9me-pan were purchased from Cell Signaling (Danvers, MA). siRNA experiments were performed by transfecting MDA-MB-231 cells with X-tremeGENE Transfection Reagent (Roche) and 10 nM siRNA (Invitrogen), according to the manufacturer's protocol.
(§1) 10^6 cells/well were incubated with increasing concentrations of a compound for 5 days and histones extracted with the EpiQuik™ Total Histone Extraction Kit (Epigentek) according to the manufacturer's protocol. Equal amounts of histones (2μg) were separated on SDS-PAGE and transferred to PVDF membranes. The blots were probed with primary antibodies, followed by anti-rabbit IgG (Thermo Scientific) secondary antibodies. For western blot analysis of MDA-MB231 xenograft tumors, tumors were harvested and frozen in liquid nitrogen. Histones were extracted and analyzed by immunoblotting as described above.

MDA-MB231 cells [2] = assay: Microarray gene set enrichment analysis; format: cell-based, Human; settings: 1 at 5 μM, 2 at 10 μM, in words
Description: 10^5 cells/well were incubated with compounds for 14 days. Cells were lysed immediately in TRIzol® Reagent, frozen in liquid nitrogen, and shipped to Asuragen, Inc. (Austin, TX) for microarray experiments. RNA was isolated, amplified, and hybridized to Illumina Human HT-12 v4 arrays according to the manufacturer's protocol. Microarray data were log2 transformed and then normalized to have the same median for all the arrays. Moderate t-statistics were used to test if genes were differentially expressed between the groups of interest. Benjamini and Hochberg method was used to correct for multiple comparisons. R and Bioconductor packages were used for all the statistical analyses (http://cran.us.r-project.org/, http://www.bioconductor.org/). Gene set enrichment analysis was performed using GSEA software from Broad Institute (Boston, MA).

A549 = assay: Cell proliferation, MTT assay; format: cell-based, Human; settings: in words
MDA-MB231 cells [3] = assay: Apoptosis, Annexin V FACS; format: cell-based, Human
Description: (§2) For apoptosis and cell cycle analysis, 10^5 cells/well were incubated with increasing concentrations of a compound for 7 or 10 days. Apoptosis was determined using the FITC Annexin V Apoptosis Detection Kit I (BD Bioscience) according to the manufacturer's protocol. Cells for cell cycle analysis were fixed in cold 70% ethanol at 4°C and stained with Propidium iodide (Sigma-Aldrich) (20 μg/ml) and RNase A (10 μg/ml) for 30min. Cells were analyzed using a FACS Calibur (BD Biosciences/Applied Biosystems) and data were processed using the program Flowjo (version7.6.5).

[4] = in vivo; cited from earlier work
MDA-MB231 [5] = assay: Transwell cell migration assay; format: cell-based, Human; settings: MDA-MB231, Transwell with and without Matrigel, in words
Description: 5 × 10^4 cells/well were incubated with compounds for 14 days. For transwell migration assays, 5× 10^4 cells were plated in the top chamber with the non-coated membrane (24-well insert; pore size, […]; BD Biosciences). For invasion assays, 5× 10^4 cells were plated in the top chamber with Matrigel-coated membrane. The cells on the apical side of each insert were then scraped off after 22 h for both assays. The wells were washed with PBS, fixed with 100% methanol and stained with DAPI. Cells that had migrated to the basal side of the membrane were visualized and counted with a Nikon Eclipse TE2000-U microscope at 10×. Pictures of three random fields were obtained and the number of cells that had migrated quantified using ImageJ analysis software.

MDA-MB231 cells [6] = assay: ALDEFLUOR assay; format: cell-based, Human; settings: in words
Description: (§3) 5 × 10^4 cells/well were incubated with compounds for 14 days. The ALDH activity of cells was determined by using the ALDEFLUOR assay kit (StemCell Technologies) according to the manufacturer's instructions. Combinations of fluorochrome-conjugated monoclonal antibodies against human CD44-FITC and CD24-PE were obtained from BD Biosciences. Primary antibodies or the respective isotype controls (BD Biosciences) were added to the cell suspension, according to the manufacturer's recommendation, and incubated at 4°C for 20 min. Dead cells were eliminated using propidium iodide (Sigma). The labelled cells were analyzed on a FACS Calibur (BD Biosciences/Applied Biosystems).

MDA-MB231 cells [7] = assay: Quantitative PCR of EMT genes; format: cell-based, Human; settings: MDA-MB231, qPCR, dose-dependent, in words
Description: 10^4 cells/well were incubated with compounds for 14 days with media containing compounds replaced every 3-4 days. Total RNA was extracted from cells using RNeasy mini kit (Qiagen). 100-1000 ng of total RNA was reverse transcribed using iScript™ Reverse Transcription Supermix (Bio-Rad) according to the manufacturer's protocol. Quantitative real-time PCR was carried out using the RT^2 SYBR Green ROX™ qPCR Mastermix (Qiagen) according to the manufacturer's instructions. Measurements were performed in triplicate, using GAPDH or human 18S ribosomal RNA as a reference gene. The sequences of primers used are listed in the Supplementary Table. Real-time PCR was performed using the ABI Prism 7300 sequence detection system.

MDA-MB231 cells [8] = assay: Cell cycle analysis, propidium iodide FACS; format: cell-based, Human; settings: MDA-MB231, in words
Description: as §2

MDA-MB231 cells [9] = assay: CD44/CD24 flow cytometry; format: cell-based, Human; settings: MDA-MB231, FACS, in words
Description: as §3

EZH2 = settings: read-out: Ki against EZH2; cited from earlier work
H3K27 methylation [10] = assay: Western blot of histone methylation in BT549; format: cell-based, Human
Description: as §1

BT549 = assay: Cell proliferation, MTT assay; format: cell-based; settings: Homo sapiens
MDA-MB231 [11] = assay: Cell proliferation, MTT assay; format: cell-based; settings: Homo sapiens
[12] = tested on: MDA-MB231, BT549 and MCF-7 breast cancer cells; assay: Cell proliferation, MTT assay, DOT1L+ breast cancer cells; format: cell-based, Human; settings: Homo sapiens
MCF-7 = assay: Cell proliferation, MTT assay; format: cell-based; settings: Homo sapiens
[13] = molecular target: other lysine methyltransferases; settings: read-out: Ki against other lysine methyltransferases; cited from earlier work
[14] = tested on: methylation at H3K4, H3K9, H3K27, H3K36 and H4K20; assay: Western blot of methylation at other histone lysines in MDA-MB231; format: cell-based, Human; settings: at concentrations of <1 μM, in words
Description: as §1

H3K27 methylation [15] = assay: Western blot of histone methylation in MDA-MB231; format: cell-based; settings: Homo sapiens, MDA-MB-231, Fig. 4b, read-out: IC50 against H3K27 methylation
Description: as §1

siRNA-1: DOT1L siRNA (Invitrogen): 634-CGCGAGUUCAGGAAGUGGAUGAAAU (other strand not given here)
effect on cell proliferation (MDA-MB231 [1]): slowed down cell proliferation; also recorded: significantly inhibited cell proliferation | effect on H3K79 methylation (H3K79 methylation): significantly reduced H3K79 methylation

CC(C)N(CCCNC(=O)Nc1ccc(C(C)(C)C)cc1)CC1OC(n2cnc3c(N)ncnc32)C(O)C1O (centres unmarked) [Compound 2, SYC-522]
genes whose expression is low in breast CSCs (GSEA) (MDA-MB231 cells [2]): upregulation | pro-proliferation genes in the PAM50 gene set (GSEA) (MDA-MB231 cells [2]): downregulation | activity against A549 cells (A549): negligible activity | apoptosis (MDA-MB231 cells [3]; MDA-MB231, 2 μM, in words): negligible amount of apoptosis | apoptotic rate (MDA-MB231 cells [3]; MDA-MB231, 10 μM): 7.8% and ~ 8% | pharmacokinetics [4]: poor pharmacokinetics with short plasma half-lives | cell migration and invasion (MDA-MB231 [5]): reduced abilities of cell migration and invasion | ALDH+ cell population (MDA-MB231 cells [6]): considerably reduced | gene expression of E-cadherin (MDA-MB231 cells [7]): increase | gene expression of TGF-β, Snail and Zeb (MDA-MB231 cells [7]): significantly reduce | sub-G1 phase cell population (MDA-MB231 cells [8]): increased sub-G1 phase cell population; also recorded: moderately increased pre-G phase cell population | CD44+/CD24− cell population (MDA-MB231 cells [9]): significantly decreased | cell population expressing high levels of CD24 (MDA-MB231 cells [9]): considerably more cells expressed higher levels of CD24; also recorded: increased cell population

Cc1cc(C)c(CNC(=O)c2cc(-c3ccc(CN4CCOCC4)cc3)cc3c2cnn3C2CCCC2)c(=O)[nH]1 [Compound 5, EPZ005687]
Ki (EZH2): 0.024 µM | selectivity of histone methylation inhibition (H3K27 methylation [10]; BT549, Western blot, in words): only inhibited H3K27 methylation | IC50 (H3K27 methylation [10]; Homo sapiens, BT-549, 5 days, breast cancer cells, Fig. 4d (BT549), read-out: IC50 of H3K27 methylation inhibition): ~0.05 µM | EC50 (BT549; BT-549, 72 h, BT549, 3-day treatment, read-out: Anti-proliferative activity EC50): 34 µM | EC50 (BT549; BT-549, 360 h, BT549, 15-day treatment, read-out: Anti-proliferative activity EC50): 35 µM | EC50 (MDA-MB231 [11]; MDA-MB-231, 72 h, MDA-MB231, 3-day treatment, read-out: Anti-proliferative activity EC50): 11 µM | EC50 (MDA-MB231 [11]; MDA-MB-231, 360 h, MDA-MB231, 15-day treatment, read-out: Anti-proliferative activity EC50): 13 µM | EC50 ([12]; three breast cancer cells, regardless of the treatment durations, read-out: anti-proliferation EC50): 11 to 35 µM | EC50 (MCF-7; MCF7, 72 h, MCF-7, 3-day treatment, read-out: Anti-proliferative activity EC50): 28 µM | EC50 (MCF-7; MCF7, 360 h, MCF-7, 15-day treatment, read-out: Anti-proliferative activity EC50): 12 µM

siRNA-3: DOT1L siRNA (Invitrogen): 104-CGCUGCCGGUCUACGAUAAACAUCA (other strand not given here)
effect on cell proliferation (MDA-MB231 [1]): did not significantly affect the growth | effect on H3K79 methylation (H3K79 methylation): considerably weaker inhibition

Nc1ncnc2c1ncn2[C@@H]1O[C@H](CSCC[C@H](N)C(=O)O)[C@@H](O)[C@H]1O [SAH, S-adenosyl-homocycteine]
Ki (EZH2): 7.5 µM | Ki [13]: > 1 µM

Nc1nccc2c1ncn2C1C=C(CO)C(O)C1O (centres unmarked) [Compound 4, 3-deazaneplanocin A]
EC50 (BT549; BT-549, 72 h, read-out: Anti-proliferative activity EC50): > 20 µM | EC50 (BT549; BT-549, 360 h, read-out: EC50, 15-day treatment): 0.065 µM | inhibitory activity against methylation at H3K4, H3K9, H3K27, H3K36 and H4K20 [14]: no or negligible inhibitory activities; also recorded: negligible effects | EC50 (MDA-MB231 [11]; MDA-MB-231, 72 h, read-out: Anti-proliferative activity EC50): > 20 µM | EC50 (MDA-MB231 [11]; MDA-MB-231, 360 h, read-out: EC50, 15-day treatment): 0.035 µM | IC50 (H3K27 methylation [15]): > 6 µM | IC50 (H3K79 methylation; Homo sapiens, MDA-MB-231, read-out: IC50 of H3K79 methylation inhibition): ~0.05 µM | EC50 ([12]; 72 h, read-out: EC50, 3-day treatment): > 20 µM | EC50 ([12]; 360 h, read-out: anti-proliferation EC50): 0.035 to 0.48 µM | EC50 (MCF-7; MCF7, 72 h, read-out: Anti-proliferative activity EC50): > 20 µM | EC50 (MCF-7; MCF7, 360 h, read-out: EC50, 15-day treatment): 0.48 µM

siRNA-2: DOT1L siRNA (Invitrogen): 117-CGAUAAACAUCACGAUGCUGCUCAU (other strand not given here)
effect on cell proliferation (MDA-MB231 [1]): did not significantly affect the growth | effect on H3K79 methylation (H3K79 methylation): considerably weaker inhibition

siRNA-4: DOT1L siRNA (Invitrogen): 470-CCCAGAUGAUUGAUGAGAUCAAGAU (other strand not given here)
effect on cell proliferation (MDA-MB231 [1]): inhibited cell proliferation | effect on H3K79 methylation (H3K79 methylation): significantly reduced H3K79 methylation
